Test results from patent publication US10941121B2 (AZIENDA OSPEDALIERA UNIVERSITARIA SENESE, priority 2015, dated 2021).

Columns and labels:
[1] = biological target: T1, DDX1 (Homo sapiens, UniProt Q92499); assay: Selectivity of 20a: DDX1; format: biochemical; details: >200 = less than 20% of inhibition at 200 μM, the highest concentration tested
T1 sequence (Q92499 1-740): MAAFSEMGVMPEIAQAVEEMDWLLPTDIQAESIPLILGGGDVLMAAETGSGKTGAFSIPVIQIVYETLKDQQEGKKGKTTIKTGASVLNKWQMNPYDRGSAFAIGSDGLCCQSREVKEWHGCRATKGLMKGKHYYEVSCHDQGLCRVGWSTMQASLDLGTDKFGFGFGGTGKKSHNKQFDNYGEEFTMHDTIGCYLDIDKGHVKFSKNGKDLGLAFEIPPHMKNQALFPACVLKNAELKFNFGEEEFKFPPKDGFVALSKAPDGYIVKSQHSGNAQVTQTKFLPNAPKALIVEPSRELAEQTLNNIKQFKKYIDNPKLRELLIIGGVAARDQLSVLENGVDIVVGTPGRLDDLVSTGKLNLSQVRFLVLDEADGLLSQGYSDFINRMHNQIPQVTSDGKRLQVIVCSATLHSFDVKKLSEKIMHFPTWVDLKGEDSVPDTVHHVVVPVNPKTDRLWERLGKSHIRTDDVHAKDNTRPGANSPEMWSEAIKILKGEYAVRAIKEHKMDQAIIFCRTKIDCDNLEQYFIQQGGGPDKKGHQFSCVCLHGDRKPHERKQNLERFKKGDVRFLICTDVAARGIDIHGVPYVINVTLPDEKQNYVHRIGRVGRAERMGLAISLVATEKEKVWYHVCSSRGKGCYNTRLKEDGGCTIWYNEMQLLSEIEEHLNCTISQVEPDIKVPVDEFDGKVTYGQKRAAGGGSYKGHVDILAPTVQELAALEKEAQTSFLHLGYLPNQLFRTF

[2] = tested on: HIV-1 wild-type reference strain NL4-3; assay: HIV-1 phenotypic assay, MT-2 cells then TZM-bl cells, luciferase; format: cell-based; details: Human immunodeficiency virus 1, NL43
[3] = tested on: HCV Jc1 (genotype 2a virus); assay: HCV infectious cell culture system, NS5A immunostaining; details: Hepatitis C virus, Huh7.5, read-out: HCV EC50
[4] = tested on: Hepatitis C Virus (HCV) replicon system; assay: HCV replicon system, luciferase method in LucUbiNeo-ET cells
[5] = tested on: HIV (PBMC); assay: HIV infectious cell culture system in PBMC, HIV-1 RNA in supernatant; details: Human immunodeficiency virus 1, PBMC, 72 h, read-out: EC50 HIV (PBMC) 72 h

Compound: CCCCc1cn(-c2ccc(NC(=O)Nc3ccccc3C)cc2)nn1 [Compound 20a, 1-(4-(4-butyl-1H-1,2,3-triazol-1-yl)phenyl)-3-o-tolylurea]
- IC50 [1]: > 200 µM
- EC50 ([2]; first cycle in MT-2 cells, additional round in TZM-bl cells): 1100 nM
- IC50 ([2]; strain 114, NL4-3 wild type, read-out: IC50 [95% CI] (μM), HIV-1 strain 114): 1.11 µM
- EC50 [3]: 3.8 µM
- activity against HCV, in words [4]: best activity
- EC50 ([4]; Hepatitis C virus, 48 h, read-out: EC50 (μM) HCV replicon system): 0.97 µM
- EC50 [5]: 30 µM
